Data reported in patent US20230082430A1 (C4 Therapeutics, Inc., priority 2019, published 2023).

Each compound was assayed on NCIH929.1 cells (assay: Cell viability assay for Table 2 (CellTiter-Glo 2.0, ATP quantification, 96 hr)). Settings: 96 h, NCIH929.1 cell viability, 96 hr, top concentration 1 μM, 14 points half log titration; read-out: IC50.
Format: cell-based
Text: Cell Viability Assay for Table 2
CellTiter-Glo® 2.0 Assay was purchased from Promega (Madison, Wis., USA). NCIH929.1 cell line was purchased from ATCC (Manassas, Va., USA). Cell culture flasks and 384-well microplates were acquired from VWR (Radnor, Pa., USA).

Structure (SMILES)	IC50 [nM]
CC(C)(C)OC(=O)N1CCC(C)(n2cc(C(=O)c3ccc4c5c(cccc35)C(=O)N4C3CCC(=O)NC3=O)cn2)CC1 (stereo not shown) [Compound 241, 4-{4-[1-(2,6-Dioxo-piperidin-3-yl)-2-oxo-1,2-dihydro-benzo[cd]indole-6-carbonyl]-pyrazol-1-yl}-4-methyl-piperidine-1-carboxylic acid tert-butyl ester]	< 100
O=C1CCC(N2C(=O)c3cccc4c(Cc5ccc(CN6CCOCC6)cc5)ccc2c34)C(=O)N1 (single isomer, unassigned) [Compound 220, 3-(6-(4-(morpholinomethyl)benzyl)-2-oxobenzo[cd]indol-1(2H)-yl)piperidine-2,6-dione]	< 1
CC1(C(=O)N2CCC(c3ccn(Cc4ccc5c6c(cccc46)C(=O)N5C4CCC(=O)NC4=O)n3)CC2)CCC1 (stereo not shown) [Compound 180, 3-[6-[[3-[1-(1-methylcyclobutanecarbonyl)-4-piperidyl]pyrazol-1-yl]methyl]-2-oxo-benzo[cd]indol-1-yl]piperidine-2,6-dione]	< 1
O=C1CCC(N2C(=O)c3cccc4c(Cc5ccc(CN6CCC7(CCCCO7)CC6)cc5)ccc2c34)C(=O)N1 (stereo not shown) [Compound 228, 3-(6-(4-((1-oxa-9-azaspiro[5.5]undecan-9-yl)methyl)benzyl)-2-oxobenzo[cd]indol-1(2H)-yl)piperidine-2,6-dione]	< 1
O=C1CCC(N2C(=O)c3cccc4c(Cc5ccc(CN6CCc7ccccc7C6)cc5)ccc2c34)C(=O)N1 (stereo not shown) [Compound 155, 3-[6-[[4-(3,4-dihydro-1H-isoquinolin-2-ylmethyl)phenyl]methyl]-2-oxo-benzo[cd]indol-1-yl]piperidine-2,6-dione]	< 1
O=C1CCC(N2C(=O)c3cccc4c(Cc5ccc(CN6CCOc7ccccc7C6)cc5)ccc2c34)C(=O)N1 (stereo not shown) [Compound 118, 3-(6-(4-((2,3-dihydrobenzo[f][1,4]oxazepin-4(5H)-yl)methyl)benzyl)-2-oxobenzo[cd]indol-1(2H)-yl)piperidine-2,6-dione]	< 1
O=C1CCC(N2C(=O)c3cccc4c(Cc5ccc(CC6CCN(Cc7ccccc7)CC6)cc5)ccc2c34)C(=O)N1 (stereo not shown) [Compound 152, 3-(6-(4-((1-benzylpiperidin-4-yl)methyl)benzyl)-2-oxobenzo[cd]indol-1(2H)-yl)piperidine-2,6-dione]	< 1
CN1C(=O)CCC(N2C(=O)c3cccc4c(Cc5cnn(C6CCN(CC7(C)CCC7)CC6)c5)ccc2c34)C1=O (stereo not shown) [Compound 294, 1-methyl-3-(6-((1-(1-((1-methylcyclobutyl)methyl)piperidin-4-yl)-1H-pyrazol-4-yl)methyl)-2-oxobenzo[cd]indol-1(2H)-yl)piperidine-2,6-dione]	< 100
CC1(n2cc(Cc3ccc4c5c(cccc35)C(=O)N4C3CCC(=O)NC3=O)nn2)CCN(C(=O)C2(C(F)(F)F)CC2)CC1 (stereo not shown) [Compound 211, 3-(6-((1-(4-methyl-1-(1-(trifluoromethyl)cyclopropane-1-carbonyl)piperidin-4-yl)-1H-1,2,3-triazol-4-yl)methyl)-2-oxobenzo[cd]indol-1(2H)-yl)piperidine-2,6-dione]	< 1
Cc1cc(Cc2ccc3c4c(cccc24)C(=O)N3C2CCC(=O)NC2=O)ccc1CN1CCN(c2ccccc2F)CC1 (stereo not shown) [Compound 286, 3-[6-[[4-[[4-(2-fluorophenyl)piperazin-1-yl]methyl]-3-methyl-phenyl]methyl]-2-oxo-benzo[cd]indol-1-yl]piperidine-2,6-dione]	< 1
CC1(CN2CCC(n3nc(Cl)cc3Cc3ccc4c5c(cccc35)C(=O)N4C3CCC(=O)NC3=O)CC2)CCC1 (stereo not shown) [Compound 206, 3-[6-[[5-chloro-2-[1-[(1-methylcyclobutyl)methyl]-4-piperidyl]pyrazol-3-yl]methyl]-2-oxo-benzo[cd]indol-1-yl]piperidine-2,6-dione]	< 1
O=C1CCC(N2C(=O)c3cccc4c(Cc5ccc(CN6CCC7(CCCCC7)CC6)cc5)ccc2c34)C(=O)N1 (stereo not shown) [Compound 224, 3-(6-(4-((3-azaspiro[5.5]undecan-3-yl)methyl)benzyl)-2-oxobenzo[cd]indol-1(2H)-yl)piperidine-2,6-dione]	< 1
O=C1CCC(N2C(=O)c3cccc4c(Cc5cnn(C6CCN(CC7(F)CC7)CC6)c5)ccc2c34)C(=O)N1 (stereo not shown) [Compound 65, 3-(6-((1-(1-((1-fluorocyclopropyl)methyl)piperidin-4-yl)-1H-pyrazol-4-yl)methyl)-2-oxobenzo[cd]indol-1(2H)-yl)piperidine-2,6-dione]	< 1
O=C1CCC(N2C(=O)c3cccc4c(Cc5ccc(CN6CCOCC6)nc5)ccc2c34)C(=O)N1 (stereo not shown) [Compound 269, 3-[6-[[6-(morpholinomethyl)-3-pyridyl]methyl]-2-oxo-benzo[cd]indol-1-yl]piperidine-2,6-dione]	< 1
COCC(C)(C)C(=O)N1CCC(C)(n2cc(Cc3ccc4c5c(cccc35)C(=O)N4C3CCC(=O)NC3=O)cn2)CC1 (stereo not shown) [Compound 85, 3-(6-((1-(1-(3-methoxy-2,2-dimethylpropanoyl)-4-methylpiperidin-4-yl)-1H-pyrazol-4-yl)methyl)-2-oxobenzo[cd]indol-1(2H)-yl)piperidine-2,6-dione]	< 1
CC(C)(C)OC(=O)N1CCC(n2cc(Nc3ccc4c5c(cccc35)C(=O)N4C3CCC(=O)NC3=O)cn2)CC1 (stereo not shown) [Compound 248, tert-butyl 4-[4-[[1-(2,6-dioxo-3-piperidyl)-2-oxo-benzo[cd]indol-6-yl]amino]pyrazol-1-yl]piperidine-1-carboxylate]	< 100
CC1(C(=O)N2CCC(n3cc(Cc4ccc5c6c(cccc46)C(=O)N5C4CCC(=O)NC4=O)c4cccnc43)CC2)CCC1 (stereo not shown) [Compound 253, 3-[6-[[1-[1-(1-methylcyclobutanecarbonyl)-4-piperidyl]pyrrolo[2,3-b]pyridin-3-yl]methyl]-2-oxo-benzo[cd]indol-1-yl]piperidine-2,6-dione]	< 1
CC(C)(F)C(=O)N1CCC(C)(n2cc(Cc3ccc4c5c(cccc35)C(=O)N4C3CCC(=O)NC3=O)cn2)CC1 (stereo not shown) [Compound 96, 3-(6-((1-(1-(2-fluoro-2-methylpropanoyl)-4-methylpiperidin-4-yl)-1H-pyrazol-4-yl)methyl)-2-oxobenzo[cd]indol-1(2H)-yl)piperidine-2,6-dione]	< 1
CC(C)(C)OC(=O)N1CCC(n2cc(Cc3ccc4c5c(cccc35)C(=O)N4C3CCC(=O)NC3=O)cn2)CC1 (racemic) [Compound 140, tert-butyl 4-(4-((1-(2,6-dioxopiperidin-3-yl)-2-oxo-1,2-dihydrobenzo[cd]indol-6-yl)methyl)-1H-pyrazol-1-yl)piperidine-1-carboxylate]	< 1
CC(C)(C#N)C(=O)N1CCC(n2cc(Cc3ccc4c5c(cccc35)C(=O)N4C3CCC(=O)NC3=O)cn2)CC1 (stereo not shown) [Compound 40, 3-(4-(4-((1-(2,6-dioxopiperidin-3-yl)-2-oxo-1,2-dihydrobenzo[cd]indol-6-yl)methyl)-1H-pyrazol-1-yl)piperidin-1-yl)-2,2-dimethyl-3-oxopropanenitrile]	< 1
CC1(C(=O)N2CCN(C3(c4ccc(Cc5ccc6c7c(cccc57)C(=O)N6C5CCC(=O)NC5=O)cc4)CC3)CC2)CCC1 (stereo not shown) [Compound 263, 3-[6-(4-{1-[4-(1-Methyl-cyclobutanecarbonyl)-piperazin-1-yl]-cyclopropyl}-benzyl)-2-oxo-2H-benzo[cd]indol-1-yl]-piperidine-2,6-dione]	< 1
CC1(C(=O)N2CCC(C)(n3cc(Cc4ccc5c6c(cccc46)C(=O)N5C4CCC(=O)NC4=O)cn3)CC2)CCC1 (stereo not shown) [Compound 92, 3-(6-((1-(4-methyl-1-(1-methylcyclobutane-1-carbonyl)piperidin-4-yl)-1H-pyrazol-4-yl)methyl)-2-oxobenzo[cd]indol-1(2H)-yl)piperidine-2,6-dione]	< 1
CN(C(=O)N1CCC(n2cc(Cc3ccc4c5c(cccc35)C(=O)N4C3CCC(=O)NC3=O)cn2)CC1)C(C)(C)C (stereo not shown) [Compound 132, N-tert-butyl-4-[4-[[1-(2,6-dioxo-3-piperidyl)-2-oxo-benzo[cd]indol-6-yl]methyl]pyrazol-1-yl]-N-methyl-piperidine-1-carboxamide]	< 1
O=C1CCC(N2C(=O)c3cccc4c(Cc5ccc(C(=O)N6CCN(c7ccccc7F)CC6)cc5)ccc2c34)C(=O)N1 (stereo not shown) [Compound 134, 3-[6-[[4-[4-(2-fluorophenyl)piperazine-1-carbonyl]phenyl]methyl]-2-oxo-benzo[cd]indol-1-yl]piperidine-2,6-dione]	< 1
N#Cc1ccc(N2CCN(Cc3ccnn3Cc3ccc4c5c(cccc35)C(=O)N4C3CCC(=O)NC3=O)CC2)c(F)c1 (stereo not shown) [Compound 209, 4-(4-((1-((1-(2,6-dioxopiperidin-3-yl)-2-oxo-1,2-dihydrobenzo[cd]indol-6-yl)methyl)-1-H-pyrazol-5-yl)methyl)piperazin-1-yl)-3-fluorobenzonitrile]	< 100
CN1CCN(Cc2ccc(Cc3ccc4c5c(cccc35)C(=O)N4C3CCC(=O)NC3=O)cc2)CC1 (stereo not shown) [Compound 114, 3-(6-(4-((4-methylpiperazin-1-yl)methyl)benzyl)-2-oxobenzo[cd]indol-1(2H)-yl)piperidine-2,6-dione]	< 1
CC1(n2cc(Cc3ccc4c5c(cccc35)C(=O)N4C3CCC(=O)NC3=O)cn2)CCN(C(=O)C2(C#N)CCC2)CC1 (stereo not shown) [Compound 86, 1-(4-(4-((1-(2,6-dioxopiperidin-3-yl)-2-oxo-1,2-dihydrobenzo[cd]indol-6-yl)methyl)-1H-pyrazol-1-yl)-4-methylpiperidine-1-carbonyl)cyclobutane-1-carbonitrile]	< 1

Same assay, conditions: NCIH929.1 cell viability, 96 hr, top concentration 1 μM, 14 points half log titration; read-out: IC50

Structure (SMILES)	IC50 [nM]
O=C1CCC(N2C(=O)c3cccc4c(Cc5ccc(CN6CCN(c7ccccc7F)CC6)cc5)ccc2c34)C(=O)N1 (single isomer, unassigned) [Compound 190, 3-[6-[[4-[[4-(2-fluorophenyl)piperazin-1-yl]methyl]phenyl]methyl]-2-oxo-benzo[cd]indol-1-yl]piperidine-2,6-dione]	< 100
